# Measured values as given in US9616022B1, “Nanodiamond compositions and their use for drug delivery” (THE FLORIDA INTERNATIONAL UNIVERSITY BOARD OF TRUSTEES, priority 2016, dated 2017).
# Legend:
# [1] = Solubility in water or PBS; type: physicochemical
# Text: In some embodiments, the efficacy of the ND-EFV formulation can be further optimized by making a suspension of the formulation in a liquid. Being hydrophobic molecules, both EFV and ND were insoluble in water or phosphate buffer saline (PBS). In certain embodiments, solvents with ratios of PBS to DMSO (dimethyl sulfoxide) ranging from 1:1 to 1:9 were used to make the ND-EFV formulation soluble in physiological buffer media. In an exemplary embodiment, a PBS:DMSO ratio of approximately 1:9 was used for making a ND-EFV suspension, which was subsequently diluted in preparation to perform biological experiments.
# HIV-1 Ba-L = assay: Anti-HIV-1 efficacy, p24 ELISA in infected primary human macrophages; type: cell-based; settings: 40 μg/mL, HIV-1 infected macrophages, supernatant Day 0-7
# Procedure: ND-EFV was investigated for anti-HIV-1 efficacy in primary human macrophage. Human peripheral blood mononuclear cells (PBMCs) were isolated from a healthy subject and differentiated into macrophages as previously published.^45 PBMCs were isolated with Ficoll-Hypaque (Pharmacia) gradient and cells were incubated for differentiation for 7 days in the presence of human macrophage colony stimulating factor (MCSF, Sigma) to macrophages. Following incubation, macrophages were infected with HIV-1 1Ba-L (NIH AIDS research and reference reagent program Cat#510) (100 ng/mL) for 24 hrs. On the next day, cells were washed to get rid of any unattached virus and fresh media was added. At the same time, 40 μg/mL of ND-EFV and unformulated EFV was added to these cells in two different setups. The HIV-1 infected macrophages served as a positive control. The […] treated cells were monitored for up to 10 days along with the infected control cells. The cell supernatant was collected at Day 0, 1, 2, 3, 5, and 7 post-treatment. The viral p24 level in the supernatant was measured with p24 ELISA assay (Cat. #0801200, Zeptometrix, USA). The p24 level at different time points provided the level of viral inhibition caused by ND-EFV and EFV. The p24 level at the culture supernatant will be inversely proportional to therapeutic efficacy of ND-EFV.
# [2] = test system: in-vitro BBB model (HBMVEC and astrocytes); assay: Drug delivery through in-vitro BBB model; type: in vitro ADME, human; settings: 40 μg/mL in upper chamber, 30 min to Day 2
# Procedure: Primary human brain microvascular endothelial cells (HBMVEC) and astrocytes were obtained from Sciencell Research Laboratories, Carlsbad, Calif. An in-vitro BBB model was established in trans-well plate as per published protocol.^47,48 HBMVECs were inoculated at the upper side of 0.4-μm pore size PTFE membrane tissue culture inserts (Corning, N.Y.) at initial concentration of 10^4 cells/well. A confluent layer of human astrocytes was grown on the lower side of the membrane. After incubation, integrity of the BBB was measured with transendothelial electrical resistance (TEER) using Millicell ERS microelectrodes (Millipore). […] Afterwards, cell media was collected at different time points (30 mins, 1 hr, Day 1, and Day 2) from the lower chamber and the upper chamber was replenished with fresh media. The drug content of the collected medium was measured through HPLC as mentioned above.
smiles,measurement,setting,value
"O=C1Nc2ccc(Cl)cc2[C@@](C#CC2CC2)(C(F)(F)F)O1 [EFV, Efavirenz]",solubility in water or phosphate buffer saline (PBS),[1],insoluble
same,time over which HIV-1 replication (p24 level) was controlled,HIV-1 Ba-L,≤ 5 days
same,EFV drug release on the CNS side (lower chamber) of the BBB model,[2],very robust drug release
